# Experimental data from paper PMC6627609, “Targeting Quorum Sensing: High-Throughput Screening to Identify Novel LsrK Inhibitors” (International Journal of Molecular Sciences, 2019).
# Structures can show the parent of a compound that is named as a salt.
# Biological target: LsrK (Salmonella typhimurium, UniProt Q8ZKQ6)
# Assay: biochemical
# Type: biochemical, S. typhimurium
# Settings: not given
# Chain of LsrK (Q8ZKQ6 whole entry): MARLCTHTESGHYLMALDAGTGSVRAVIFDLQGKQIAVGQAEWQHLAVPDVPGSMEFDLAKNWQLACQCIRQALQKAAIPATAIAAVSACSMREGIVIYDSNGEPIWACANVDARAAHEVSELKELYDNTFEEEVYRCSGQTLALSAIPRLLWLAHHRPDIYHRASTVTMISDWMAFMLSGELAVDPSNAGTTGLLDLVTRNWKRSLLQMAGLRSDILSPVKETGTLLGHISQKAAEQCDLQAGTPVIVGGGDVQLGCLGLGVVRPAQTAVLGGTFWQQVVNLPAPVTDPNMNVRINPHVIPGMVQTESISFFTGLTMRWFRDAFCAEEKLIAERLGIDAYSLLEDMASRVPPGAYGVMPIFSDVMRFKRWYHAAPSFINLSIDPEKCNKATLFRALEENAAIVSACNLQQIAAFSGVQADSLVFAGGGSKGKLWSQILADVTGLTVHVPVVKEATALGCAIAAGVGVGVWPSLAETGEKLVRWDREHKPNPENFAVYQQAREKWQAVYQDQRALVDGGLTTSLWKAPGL
Compound,IC50 [µM],inhibition at 50 µM [%]
CC(=O)O[C@H]1C[C@@H](OC(C)=O)C(C)(C)[C@@H]2CC(=O)[C@]3(C)[C@H](CC[C@@]4(C)[C@H](c5ccoc5)OC(=O)[C@H]5O[C@]543)[C@@]12C [7-DEACETOXY-7-OXOKHIVORIN],3,133
O=C(O)c1cc(O)c(=O)c2c(O)c(O)ccc2c1 [7-DESHYDROXYPYROGALLIN-4-CARBOXYLIC ACID],7,107
O=[N+]([O-])c1cccc2cn[nH]c12 [7-NITROINDAZOLE],,1
CC[C@@]1(O)C(=O)OCc2c1cc1n(c2=O)Cc2cc3cc(O)ccc3nc2-1 [10-HYDROXYCAMPTOTHECIN],,1
COc1ccc2c(c1)OC1(O)COc3cc(OC)c(OC)cc3C1=C2 (stereo not drawn) [12a-HYDROXY-5-DEOXYDEHYDROMUNDUSERONE],,0
COc1cc2c(cc1OC)C1(O)C(=O)c3ccc(O)c(C(=O)O)c3OC1CO2 (stereo not drawn) [12a-HYDROXY-9-DEMETHYLMUNDUSERONE-8-CARBOXYLIC ACID],,3
COc1ccc(-c2cc(=O)c3c(OC(C)=O)cc(OC(C)=O)cc3o2)cc1 [ACACETIN DIACETATE],,0
NC(=O)c1ncn([C@@H]2O[C@H](CO)[C@@H](O)[C@H]2O)c1N [ACADESINE],,0
CCCC(=O)Nc1ccc(OCC(O)CNC(C)C)c(C(C)=O)c1 (stereo not drawn) [ACEBUTOLOL HYDROCHLORIDE],,0
CC(=O)Nc1ccccc1 [ACETANILIDE],,1
COc1cc(C(C)=O)cc(OC)c1O [ACETOSYRINGONE],,8
CC(=O)Oc1c2c(c(CC=C(C)C)c3c1C(=O)C1=C[C@@H]4CC5C(C)(C)OC(C/C=C(\C)C(=O)O)(C4=O)[C@@]15O3)OC(C)(CCC=C(C)C)C=C2 (stereo partly drawn) [ACETYL I[…]],4,141
CC(=O)N[C@@H](CC(C)C)C(=O)O [ACETYL-L-LEUCINE],,0
CC(=O)N[C@@H](Cc1c[nH]c2ccccc12)C(N)=O [ACETYLTRYPTOPHANAMIDE],,1
CC(=O)N[C@@H](Cc1c[nH]c2ccccc12)C(=O)O [ACETYLTRYPTOPHAN],,6
O=C(O)/C=C(\CC(=O)O)C(=O)O [ACONITIC ACID],,1
CCN1C[C@]2(COC)[C@H](O)C[C@H](OC)[C@@]34[C@@H]5C[C@@]6(O)[C@H](OC(=O)c7ccccc7)[C@@H]5[C@@](OC(C)=O)([C@@H]([C@H](OC)[C@H]23)[C@@H]14)[C@@H](O)[C@@H]6OC [ACONITINE],,1
Nc1nc2c(ncn2COCCO)c(=O)[nH]1 [ACYCLOVIR],,8
Nc1ncnc2[nH]cnc12 [ADENINE],,1
CCN(CC)CCOC(=O)C(c1ccccc1)c1ccccc1 [ADIPHENINE HYDROCHLORIDE],,0
NCCCCN=C(N)N [AGMATINE SULFATE],,0

Compound,IC50 [µM],inhibition at 50 µM [%]
CC[C@H]1[C@@H]2C[C@H]3[C@@H]4N(C)c5ccccc5[C@]45C[C@@H]([C@H]2[C@H]5O)N3[C@@H]1O [AJMALINE],,0
CC(N)C(=O)OC(C)(C)Cc1ccc(Cl)cc1 (stereo not drawn) [ALAPROCLATE],,1
CCCSc1ccc2nc(NC(=O)OC)[nH]c2c1 [ALBENDAZOLE],,4
CCCCC(CC)CNC(=N)NC(=N)NCCCCCCNC(=N)NC(=N)NCC(CC)CCCC (stereo not drawn) [ALEXIDINE HYDROCHLORIDE],,146
COCCCOc1cc(C[C@@H](C[C@H](N)[C@@H](O)C[C@H](C(=O)NCC(C)(C)C(N)=O)C(C)C)C(C)C)ccc1OC [ALISKIREN HEMIFUMARATE],,0
O=C1NC(=O)C(=O)C(=O)N1 [ALLOXAN],,18
O=C1c2c(O)cccc2C([C@@H]2O[C@H](CO)[C@@H](O)[C@H](O)[C@H]2O)c2cc(CO)cc(O)c21 (stereo partly drawn) [ALOIN],,45
C=CCc1ccccc1OCC(O)CNC(C)C (stereo not drawn) [ALPRENOLOL],,0
C=CCSCC1Nc2cc(Cl)c(S(N)(=O)=O)cc2S(=O)(=O)N1 (stereo not drawn) [ALTHIAZIDE],,2
C=CC[C@]1(O)CC[C@H]2[C@@H]3CCC4=CC(=O)CCC4=C3C=C[C@@]21C [ALTRENOGEST],,0
CN(C)c1nc(N(C)C)nc(N(C)C)n1 [ALTRETAMINE],,19
CCN(CCCc1ccccc1)CCCc1ccccc1 [ALVERINE CITRATE],,1
CC(=O)OCC(=O)[C@@]12OC3(CCCC3)O[C@@H]1C[C@H]1[C@@H]3CCC4=CC(=O)C=C[C@]4(C)[C@@]3(F)[C@@H](O)C[C@@]12C [AMCINONIDE],,1
NCCCNCCSP(=O)(O)O [AMIFOSTINE],,3
N=C(N)NC(=O)c1nc(Cl)c(N)nc1N [AMILORIDE HYDROCHLORIDE],,1
NC1(C(=O)O)CC1 [AMINOCYCLOPROPANECARBOXYLIC ACID],,1
Nc1ccc(C(=O)NCC(=O)O)cc1 [AMINOHIPPURIC ACID],,1
Nc1ccc(C(=O)O)c(O)c1 [AMINOSALICYLATE SODIUM],,1
CN(C)CCCO[C@@H]1[C@H]2OC(C)(C)O[C@H]2O[C@@H]1[C@H](O)CO [AMIPRILOSE],,2
Cc1ccc(/N=C/N(C)/C=N/c2ccc(C)cc2C)c(C)c1 [AMITRAZ],,1

# Same assay, conditions: 50 µM
row,Compound,Inhibition (%)
1,CC(=O)O[C@H]1C[C@@H](OC(C)=O)C(C)(C)C2C[C@@H](O)[C@]3(C)C(CC[C@@]4(C)[C@H](c5ccoc5)OC(=O)[C@H]5O[C@]543)[C@]21C (stereo partly drawn) [7-DEACETYLKHIVORIN],0
2,CC1(C)C(=O)C=C[C@]2(C)[C@H]3CC[C@@]4(C)[C@H](c5ccoc5)OC(=O)[C@H]5O[C@]54[C@]3(C)C=C[C@@H]12 [7-DESACETOXY-6.7-DEHYDROGEDUNIN],33
3,O=c1cc(-c2ccccc2O)oc2cc(O)ccc12 [7.2'-DIHYDROXYFLAVONE],76
4,O=c1cc(-c2ccc(O)cc2)oc2cc(O)ccc12 [7.4'-DIHYDROXYFLAVONE],1
5,COc1ccc(-c2coc3cc(OC)ccc3c2=O)cc1 [7.4'-DIMETHOXYISOFLAVONE],1
6,O=c1cc(-c2ccccc2)oc2c(O)c(O)ccc12 [7.8-DIHYDROXYFLAVONE],5
7,COC(=O)C[C@H]1C(C)(C)C2(O)OC34CC2C(=O)[C@]1(C)C3CC[C@]1(C)C4=CC(=O)O[C@H]1c1ccoc1 (stereo partly drawn) [8beta-HYDROXYCARAPIN. 3.8-HEMIACETAL],0
8,CC(=O)O[C@@H]1C[C@]2(C)[C@@H](C(C)=O)CC[C@H]2[C@@H]2CCC3=CC(=O)CC[C@]3(C)[C@H]21 [11a-ACETOXYPROGESTERONE],23
9,CC(C)c1ccc2c(c1)CCC1[C@](C)(CN)CCC[C@]21C.O=S(=O)(O)O (stereo partly drawn) [18-AMINOABIETA-8.11.13-TRIENE SULFATE],1
10,CNC[C@H](O)c1ccc(O)c(O)c1.O=C(O)C(O)C(O)C(=O)O [ADRENALINE BITARTRATE],15
11,O=c1ccc2cc(O[C@@H]3O[C@H](CO)[C@@H](O)[C@H](O)[C@H]3O)c(O)cc2o1 [AESCULIN],1
12,O=C(O)CCCCCCCC(O)C(O)CCCCCCO (stereo not drawn) [ALEURETIC ACID],0
13,COc1cc2nc(N(C)CCCNC(=O)C3CCCO3)nc(N)c2cc1OC (stereo not drawn) [ALFLUZOSIN],1
